Laboratory results: article PMC10988555, “Exploiting Co(III)-Cyclopentadienyl Complexes To Develop Anticancer Agents” (Inorganic Chemistry, 2024)

What was measured:
A2780 cells = assay: Cell cycle progression (PI flow cytometry, double thymidine block); format: cell-based, human; details: A2780, 24 h; complexes at IC50, DOX 0.4 μM, cisplatin 5 μM
Experimental: The interference of the copper complexes 2–4 in the cell cycle progression was evaluated in A2780 cells, seeded in 6-weel plates, with a density of 2 × 10^5 cells/well, and incubated for 8 h at the same conditions as described above. After that incubation time, the cells were synchronized in early S-phase with a 2 mM thymidine solution (Sigma, St. Louis, USA) for a 16 h period. Media with thymidine was replaced by fresh media and, after 8 h, another 2 mM thymidine solution was added to the wells (double thymidine block) and incubated for 16 h. […] Cells were incubated for 9, 18, or 24 h, and, at each hour, the cells were treated with TE and centrifuges at 650 × g for 5 min at 4 °C. The pellet was resuspended in PBS 1× and centrifuged at 3000 × g for 5 min at 4 °C. Later, the pellet was resuspended in 100 μL of PBS 1×, and 1 mL of a solution of 80% (v/v) ethanol was gently added to the cells. Cells were stored at 4 °C for at least 12 h and then centrifuged for 10 min at 7500 × g at 4 °C, treated with 250 μL of 50 μg/mL RNase A, and incubated for 30 min at 37 °C. After incubation, 100 μL of PI (25 μg/mL) was added to the cells as well as 650 μL of PBS 1×. The DNA content was evaluated on an Attune Acoustic Focusing Flow Cytometer (ThermoFisher Scientific) and results were analyzed by the respective software.

A2780 cell line [1] = assay: Internalization of cobalt by ICP-AES; format: cell-based, human; details: A2780, 10× IC50, ICP-AES, cellular fraction
Experimental: Internalization of the cobalt complexes was evaluated by ICP-AES in the A2780 cell line. For this, the A2780 cell line was seeded in 25 cm^2 T-flasks at a density of 5 × 10^5 cells/T-flask and incubated for 24 h at 37 °C with 5% (v/v) CO2. […] Cells were then incubated for 3, 6, and 12 h at the same conditions as before and for 12 h at 4 °C. The culture media was recovered to a new tube (supernatant fraction) and cells were detached from the T-flask with 2 mL of TripLE Express (TE) (Gibco by life technologies) and centrifuged at 750 × g for 5 min. Then, fresh aqua regia was added to the supernatant tube and to the cellular fractions and incubated overnight at room temperature (RT) in the hood fume. Samples were delivered to Laboratório de Análises/LAQV and the levels of cobalt were evaluated by ICP-AES.

[2] = test system: MDA-MB-231 (human breast cancer) cell line; assay: Antiproliferative activity, MTS assay, MDA-MB-231; format: cell-based; details: 48 h exposure
Experimental: (§1) Human colorectal carcinoma cell line (HCT116), human breast cancer cell lines (MDA-MB-231 and MCF-7), and normal human primary dermal fibroblasts neonatal (PCS-201-010) cell line were grown in DMEM (Dulbecco’s modified Eagle’s medium) (Invitrogen Corp., Grand Island, NY, USA) supplemented with 10% (v/v) fetal bovine serum and 1% (v/v) antibiotic/antimycotic solution (Invitrogen Corp.). The human ovarian carcinoma (A2780) cell line was cultivated using RPMI (Roswell Park Memorial Institute) medium supplemented as in DMEM medium. The supplemented medium is named a complete medium. Cells were grown in an incubator with a humidified atmosphere at 5% (v/v) CO2 and 37 °C. All cell lines were purchased from ATCC (ATCC, American Type Culture Collection).
(§2) The evaluation of the cytotoxic potential of complexes 1–4 was obtained through in vitro measurements of the antiproliferative activity of these complexes. Cells were plated in 96-well plates at 7.5 × 10^4 cells/mL and incubated at 37 °C with 5% (v/v) CO2. After 24 h, the culture medium was replaced with fresh medium (100 μL) containing 0.1–50 μM of the different complexes and incubated for 48 h in tumor cell lines or containing 0.1–100 μM of the different complexes and incubated for 48 h in fibroblasts. […] The fibroblast cell line was used as a control of the cytotoxicity of the complexes for healthy cells. Cell viability was evaluated using Cell Titer 96 Aqueous Non-Radioactive Cell Proliferation Assay (Promega, Madison, WI, USA) using 3-(4,5-dimethylthiazol-2-yl)-5-(3-carboxymethoxyphenyl)-2-(4-sulfophenyl)-2H-tetrazolium inner salt (MTS), as described previously.[60] In metabolically active cells, enzymes present in the mitochondria catalyze a reaction in which NADPH/NADH is produced. These enzymes reduce the MTS reagent into a brownish product, Formazan, which can be quantified by measuring the absorbance at 490 nm. The quantity of formazan produced is directly proportional to the number of viable cells in the culture. This quantification was executed with a Biorad microplate reader Model 680 (Bio-Rad, Hercules, CA, USA). Half maximal inhibitory concentration (IC50) was calculated using GraphPad Prism 6 (GraphPadSoftware). We have calculated the ratio between the IC50 of fibroblasts and the IC50 of HCT116, A2780, MDA-MB-231, or MCF-7 cell lines for complexes 1–4 that was named herein as the Selectivity index (SI). To ensure the solubility of the complexes in all biological assays, complex solutions were freshly prepared and well solubilized before addition to the cells.

ROS in A2780 cell line = assay: Production of reactive oxygen species (H2DCF-DA flow cytometry); format: cell-based, human; details: A2780, IC50, 48 h, vs DMSO
Experimental: The production of ROS was evaluated in the A2780 cell line, seeded in 6-well plates at a density of 2 × 10^5 cells/well, and incubated for 24 h at the same conditions as described above. […] Later, cells were washed with PBS 1×, detached from the wells with TE, and incubated with […] of 2′,7′-dichlorodihydrofluorescein diacetate (H2DCF-DA) (ThermoFisher Scientific, Waltham, MA, USA) in PBS 1× for 20 min at 37 °C. The data were obtained through an Attune acoustic focusing flow cytometer (ThermoFisher Scientific) and respective software.

[3] = test system: MCF-7 (human breast cancer) cell line; assay: Antiproliferative activity, MTS assay, MCF-7; format: cell-based; details: for IC50: 48 h exposure, MTS assay
Experimental: as §1, §2

A2780 cell line [4] = assay: Autophagy induction, flow cytometry; format: cell-based, human; details: for levels of autophagy: A2780, 48 h, complexes at IC50, DOX 0.4 μM, cisplatin 5 μM, rapamycin 500 nM for 15 h; for increase of autophagy compared to the control: A2780, IC50, 48 h, vs DMSO 0.1%
Experimental: The autophagy induced by complexes 2–4 was evaluated using the Autophagy Assay Kit (ab139484, Abcam, Cambridge, United Kingdom) according to the manufacturer’s instructions. For this, the A2780 cell line was seeded at a density of 2 × 10^5 cells/well in 6-well plates and incubated for 24 h at the conditions mentioned before. […] The positive control Rapamycin at 500 nM was incubated for only 15 h. After 48 h incubation, the cells were washed with PBS 1×, detached with TE, and treated with the Autophagy detection kit (Abcam, Cambridge, UK) according to the manufacturer’s instructions. The evaluation of autophagy induction was done through the Attune acoustic focusing flow cytometer (ThermoFisher Scientific) and respective software.

Compound | % of cells in the G2/M phase (A2780 cells) | Percentage of internalization, 3 h at 37 °C (A2780 cell line [1]) | Percentage of internalization, 6 h at 37 °C (A2780 cell line [1]) | Percentage of internalization, 12 h at 37 °C (A2780 cell line [1]) | IC50 [2] | ROS production relative to control (ROS in A2780 cell line) | IC50 [3] | levels of autophagy (A2780 cell line [4]) | increase of autophagy compared to the control (A2780 cell line [4]) | Selectivity index (SI), MCF-7 ([3]; IC50 fibroblasts/IC50 MCF-7, value with * calculated taking fibroblast IC50 as 100 μM (minimal value))
Cc1ccnc(-c2cc(C)ccn2)c1.O=S(=O)([O-])C(F)(F)F.O=S(=O)([O-])C(F)(F)F.[Co+3].c1cc[cH-]c1.c1ccc(P(c2ccccc2)c2ccccc2)cc1 [Complex 2, [Co(η^5-C5H5)(PPh3)(Me2bipy)][(CF3SO3)2]] | 34.1% | 40.6% ± 2.0 | 50.7% ± 3.3 | 92.6% ± 6.5 | > 50 µM | only a slight increase in the % of ROS | > 50 µM | 81.5% | 1.9 × | 
O=S(=O)([O-])C(F)(F)F.O=S(=O)([O-])C(F)(F)F.[Co+3].c1cc[cH-]c1.c1ccc(P(c2ccccc2)c2ccccc2)cc1.c1cnc2c(c1)ccc1cccnc12 [Complex 3, [Co(η^5-C5H5)(PPh3)(phen)][(CF3SO3)2]] | 20.7% | 49.7% ± 3.5 | 31.9% ± 10.2 | 76.9% ± 15.9 | > 50 µM | 1.7 × | > 50 µM |  | 1.5 × | 
Nc1cc2cccnc2c2ncccc12.O=S(=O)([O-])C(F)(F)F.O=S(=O)([O-])C(F)(F)F.[Co+3].c1cc[cH-]c1.c1ccc(P(c2ccccc2)c2ccccc2)cc1 [Complex 4, [CoCp(PPh3)(NH2phen)][(CF3SO3)2]] | 28% | 33.7% ± 2.7 | 43.6% ± 5.8 | 89.3% ± 10.6 | > 50 µM | 1.9 × | 10.2 ± 0.1 µM | 95.5% | 2.2 × | 9.8*
